Assay results published in patent US9109004B2, “Progesterone receptor antagonists” (Bayer Intellectual Property GmbH, priority 2010, dated 2015).

Biological target: T1, human progesterone receptor A (Homo sapiens, UniProt P06401)
T1 construct: expressed in transfected cells; host or cells: SK-N-MC human neuroblastoma cells, stably transfected
T1 sequence (P06401 1-769 isoform P06401-2): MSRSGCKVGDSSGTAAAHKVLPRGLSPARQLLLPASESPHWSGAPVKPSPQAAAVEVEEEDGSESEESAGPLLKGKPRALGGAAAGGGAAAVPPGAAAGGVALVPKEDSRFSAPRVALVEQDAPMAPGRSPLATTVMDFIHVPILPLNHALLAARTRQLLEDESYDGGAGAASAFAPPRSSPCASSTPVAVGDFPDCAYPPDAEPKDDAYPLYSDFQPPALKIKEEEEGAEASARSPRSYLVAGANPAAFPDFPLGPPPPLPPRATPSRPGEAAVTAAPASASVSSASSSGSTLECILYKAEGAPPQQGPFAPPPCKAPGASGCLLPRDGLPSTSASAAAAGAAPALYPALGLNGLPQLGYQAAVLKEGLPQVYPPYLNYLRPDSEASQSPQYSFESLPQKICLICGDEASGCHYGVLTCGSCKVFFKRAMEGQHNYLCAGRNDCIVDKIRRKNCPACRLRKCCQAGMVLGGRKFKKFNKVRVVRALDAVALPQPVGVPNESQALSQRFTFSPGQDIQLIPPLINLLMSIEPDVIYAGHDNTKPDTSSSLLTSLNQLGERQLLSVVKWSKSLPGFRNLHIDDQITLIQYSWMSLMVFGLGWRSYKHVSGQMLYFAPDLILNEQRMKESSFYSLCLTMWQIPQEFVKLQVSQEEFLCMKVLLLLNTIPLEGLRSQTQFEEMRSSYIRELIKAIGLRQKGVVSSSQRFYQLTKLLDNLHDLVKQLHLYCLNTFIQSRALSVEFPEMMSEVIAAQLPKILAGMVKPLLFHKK
Assay: Progesterone-receptor-antagonistic action in stably transfected SK-N-MC cells, MTV-LUC reporter (PR-A)
Format: cell-based
Details: antagonistic potency vs 0.1 nmol/l promegestone, 24 hours, luciferase
Description: Progesterone-Receptor-Antagonistic Action in Stable Transfectants of Human Neuroblastoma Cells (SK-N-MC Cells) with the Human Progesterone A or Progesterone B Receptor and an MTV-LUC Reporter Construct
SK-N-MC cells (human neuroblastoma cells) that have been stably transfected with plasmids that express the human progesterone receptor B (pRChPR-B-neo) or the human progesterone receptor A (pRChPR-A-neo) and a reporter construct (pMMTV-LUC), were incubated for 24 hours either in the absence (negative control) or in the presence of increasing amounts of the particular test compound (0.01 nmol/l, 0.1 nmol/l, 1 nmol/l, 10 nmol/l, 100 nmol/l and 1 μmol/l), to determine the agonistic efficacy. As positive control of reporter gene induction, the cells were treated with the synthetic gestagen promegestone (0.01 nmol/l, 0.1 nmol/l, 1 nmol/l, 10 nmol/l, 100 nmol/l and 1 μmol/l). For determination of the antagonistic activity, the cells were treated with 0.1 nmol/l promegestone and additionally with increasing amounts of the particular test compound (0.01 nmol/l, 0.1 nmol/l, 1 nmol/l, 10 nmol/l, 100 nmol/l and 1 μmol/l). The activity of the reporter gene LUC (LUC=luciferase) was determined in the cell lysates and was measured as RLU (relative light units). All measured values are given as % efficacy and as EC50 or IC50 concentrations.

Row | SMILES | IC50 [nM]
1 | CC(=O)Nc1ccc(NC(=O)c2ccc([C@H]3C[C@@]4(C)[C@@H](CC[C@@]4(O)C(F)(F)C(F)(F)F)[C@@H]4CCC5=CC(=O)CCC5=C43)cc2)cc1 [Example 52, N-(4-acetamidophenyl)-4-[(11β,17β)-17-hydroxy-3-oxo-17-(pentafluoroethyl)estra-4,9-dien-11-yl]benzamide] | 0.71
2 | C[C@]12C[C@H](c3ccc(C(=O)NCc4ccccn4)cc3)C3=C4CCC(=O)C=C4CC[C@H]3[C@@H]1CC[C@@]2(O)C(F)(F)C(F)(F)F [Example 20, 4-[(11β,17β)-17-hydroxy-3-oxo-17-(pentafluoroethyl)estra-4,9-dien-11-yl]-N-(pyridin-2-ylmethyl)benzamide] | 3.8
3 | C[C@]12C[C@H](c3ccc(C(=O)N4CCN(Cc5cccnc5)CC4)cc3)C3=C4CCC(=O)C=C4CC[C@H]3[C@@H]1CC[C@@]2(O)C(F)(F)C(F)(F)F [Example 69, (11β,17β)-17-hydroxy-17-(pentafluoroethyl)-11-(4-{[4-(pyridin-3-ylmethyl)piperazin-1-yl]carbonyl}phenyl)estra-4,9-dien-3-one] | 7.3
4 | COc1ccc(CNC(=O)c2ccc([C@H]3C[C@@]4(C)[C@@H](CC[C@@]4(O)C(F)(F)C(F)(F)F)[C@@H]4CCC5=CC(=O)CCC5=C43)cc2)cc1 [Example 35, 4-[(11β,17β)-17-hydroxy-3-oxo-17-(pentafluoroethyl)estra-4,9-dien-11-yl]-N-(4-methoxybenzyl)benzamide] | 34
5 | COC(=O)c1cccc(NC(=O)c2ccc([C@H]3C[C@@]4(C)[C@@H](CC[C@@]4(O)C(F)(F)C(F)(F)F)[C@@H]4CCC5=CC(=O)CCC5=C43)cc2)c1 [Example 57, methyl-3-({4-[(11β,17β)-17-hydroxy-3-oxo-17-(pentafluoroethyl)estra-4,9-dien-11-yl]benzoyl}amino)benzoate] | 0.8
6 | C[C@]12C[C@H](c3ccc(C(=O)NCc4cccc(Cl)c4)cc3)C3=C4CCC(=O)C=C4CC[C@H]3[C@@H]1CC[C@@]2(O)C(F)(F)C(F)(F)F [Example 56, N-(3-chlorobenzyl)-4-[(11β,17β)-17-hydroxy-3-oxo-17-(pentafluoroethyl)estra-4,9-dien-11-yl]benzamide] | 2.3
7 | COc1cccc(CNC(=O)c2ccc([C@H]3C[C@@]4(C)[C@@H](CC[C@@]4(O)C(F)(F)C(F)(F)F)[C@@H]4CCC5=CC(=O)CCC5=C43)cc2)c1 [Example 53, 4-[(11β,17β)-17-hydroxy-3-oxo-17-(pentafluoroethyl)estra-4,9-dien-11-yl]-N-(3-methoxybenzyl)benzamide] | 29
8 | C[C@]12C[C@H](c3ccc(C(=O)NCc4ccc(S(N)(=O)=O)cc4)cc3)C3=C4CCC(=O)C=C4CC[C@H]3[C@@H]1CC[C@@]2(O)C(F)(F)C(F)(F)F [Example 18, 4-[(11β,17β)-17-hydroxy-3-oxo-17-(pentafluoroethyl)estra-4,9-dien-11-yl]-N-(4-sulphamoylbenzyl)benzamide] | 4.7
9 | C[C@]12C[C@H](c3ccc(C(=O)NCCCN4CCOCC4)cc3)C3=C4CCC(=O)C=C4CC[C@H]3[C@@H]1CC[C@@]2(O)C(F)(F)C(F)(F)F [Example 13, 4-[(11β,17β)-17-hydroxy-3-oxo-17-(pentafluoroethyl)estra-4,9-dien-11-yl]-N-[3-(morpholin-4-yl)propyl]benzamide] | 24
10 | CN(C(=O)c1ccc([C@H]2C[C@@]3(C)[C@@H](CC[C@@]3(O)C(F)(F)C(F)(F)F)[C@@H]3CCC4=CC(=O)CCC4=C32)cc1)c1ccccc1 [Example 28, 4-[(11β,17β)-17-hydroxy-3-oxo-17-(pentafluoroethyl)estra-4,9-dien-11-yl]-N-methyl-N-phenylbenzamide] | 63
11 | CCN(CC)C(=O)c1ccc([C@H]2C[C@@]3(C)[C@@H](CC[C@@]3(O)C(F)(F)C(F)(F)F)[C@@H]3CCC4=CC(=O)CCC4=C32)cc1 [Example 27, N,N-diethyl-4-[(11β,17β)-17-hydroxy-3-oxo-17-(pentafluoroethyl)estra-4,9-dien-11-yl]benzamide] | 133
12 | CN(Cc1ccccc1)C(=O)c1ccc([C@H]2C[C@@]3(C)[C@@H](CC[C@@]3(O)C(F)(F)C(F)(F)F)[C@@H]3CCC4=CC(=O)CCC4=C32)cc1 [Example 51, N-benzyl-4-[(11β,17β)-17-hydroxy-3-oxo-17-(pentafluoroethyl)estra-4,9-dien-11-yl]-N-methylbenzamide] | 9
13 | CC(C)(NC(=O)c1ccc([C@H]2C[C@@]3(C)[C@@H](CC[C@@]3(O)C(F)(F)C(F)(F)F)[C@@H]3CCC4=CC(=O)CCC4=C32)cc1)c1ccccc1 [Example 17, 4-[(11β,17β)-17-hydroxy-3-oxo-17-(pentafluoroethyl)estra-4,9-dien-11-yl]-N-(2-phenylpropan-2-yl)benzamide] | 0.21
14 | C[C@]12C[C@H](c3ccc(C(=O)N4CCN(Cc5ccccc5)CC4)cc3)C3=C4CCC(=O)C=C4CC[C@H]3[C@@H]1CC[C@@]2(O)C(F)(F)C(F)(F)F [Example 40, (11β,17β)-11-{4-[(4-benzylpiperazin-1-yl)carbonyl]phenyl}-17-hydroxy-17-(pentafluoroethyl)estra-4,9-dien-3-one] | 117
15 | C[C@]12C[C@H](c3ccc(C(=O)N4CCN(c5cnccn5)CC4)cc3)C3=C4CCC(=O)C=C4CC[C@H]3[C@@H]1CC[C@@]2(O)C(F)(F)C(F)(F)F [Example 46, (11β,17β)-17-hydroxy-17-(pentafluoroethyl)-11-(4-{[4-(pyrazin-2-yl)piperazin-1-yl]carbonyl}phenyl)estra-4,9-dien-3-one] | 4.3
16 | C[C@]12C[C@H](c3ccc(C(=O)NCCc4ccncc4)cc3)C3=C4CCC(=O)C=C4CC[C@H]3[C@@H]1CC[C@@]2(O)C(F)(F)C(F)(F)F [Example 64, 4-[(11β,17β)-17-hydroxy-3-oxo-17-(pentafluoroethyl)estra-4,9-dien-11-yl]-N-[2-(pyridin-4-yl)ethyl]benzamide] | 1.1
17 | C[C@]12C[C@H](c3ccc(C(=O)NCCc4ccccn4)cc3)C3=C4CCC(=O)C=C4CC[C@H]3[C@@H]1CC[C@@]2(O)C(F)(F)C(F)(F)F [Example 61, 4-[(11β,17β)-17-hydroxy-3-oxo-17-(pentafluoroethyl)estra-4,9-dien-11-yl]-N-[2-(pyridin-2-yl)ethyl]benzamide] | 1.6
18 | C[C@]12C[C@H](c3ccc(C(=O)N4CCN(c5ccccc5)CC4)cc3)C3=C4CCC(=O)C=C4CC[C@H]3[C@@H]1CC[C@@]2(O)C(F)(F)C(F)(F)F [Example 30, (11β,17β)-17-hydroxy-17-(pentafluoroethyl)-11-{4-[(4-phenylpiperazin-1-yl)carbonyl]phenyl}estra-4,9-dien-3-one] | 7.2
19 | C[C@]12C[C@H](c3ccc(C(=O)NCc4ccccc4)cc3)C3=C4CCC(=O)C=C4CC[C@H]3[C@@H]1CC[C@@]2(O)C(F)(F)C(F)(F)F [Example 34, N-benzyl-4-[(11β,17β)-17-hydroxy-3-oxo-17-(pentafluoroethyl)estra-4,9-dien-11-yl]benzamide] | 14.4
